Data as given in US9062124B2, “GIP-based mixed agonists for treatment of metabolic disorders and obesity” (priority 2008, dated 2015).
Bridges are numbered along the chain shown (N, C = ends). Where no end group is shown, it is not given here. [ ]: non-standard residue; d: D form. PEG 40 kDa = PEG (40 kDa) covalently attached to Cys; C14 acyl = 14 carbon fatty acyl group; Aib = CC(C)(N)C(=O)O

How the values were obtained:
GLP-1 receptor = target: T1, GLP-1 receptor (Homo sapiens, UniProt P43220); experiment: cAMP synthesis functional assay (firefly luciferase reporter in HEK293 cells), GLP-1 receptor; type: cell-based
T1 construct: expressed in transfected cells; host or cells: HEK293

glucagon receptor = target: T2, glucagon receptor (Homo sapiens, UniProt P47871); experiment: cAMP synthesis functional assay (firefly luciferase reporter in HEK293 cells), glucagon receptor; type: cell-based; conditions: relative to the standard (Std.) EC50 of the same run
T2 construct: expressed in transfected cells; host or cells: HEK293

GIP receptor = target: T3, GIP receptor (Homo sapiens, UniProt P48546); experiment: cAMP synthesis functional assay (firefly luciferase reporter in HEK293 cells), GIP receptor; type: cell-based; conditions: relative to the standard (Std.) EC50 of the same run
T3 construct: expressed in transfected cells; host or cells: HEK293
T3 sequence (P48546 22-466): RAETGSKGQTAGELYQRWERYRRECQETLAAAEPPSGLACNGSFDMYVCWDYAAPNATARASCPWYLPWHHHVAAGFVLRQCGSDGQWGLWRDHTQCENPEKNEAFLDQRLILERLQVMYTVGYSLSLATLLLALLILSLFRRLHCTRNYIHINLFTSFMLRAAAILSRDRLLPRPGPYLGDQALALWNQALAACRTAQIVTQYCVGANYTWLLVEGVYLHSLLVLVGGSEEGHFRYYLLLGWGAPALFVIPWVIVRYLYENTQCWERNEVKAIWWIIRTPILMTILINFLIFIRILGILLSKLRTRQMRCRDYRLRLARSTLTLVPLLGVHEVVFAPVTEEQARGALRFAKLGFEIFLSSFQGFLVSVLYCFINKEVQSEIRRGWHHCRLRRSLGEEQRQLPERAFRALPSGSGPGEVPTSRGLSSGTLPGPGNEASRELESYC

[1] = Blood glucose levels of mice after peptide injection
[2] = system: glucagon receptor, GLP-1 receptor or GIP receptor; experiment: Agonist profile across receptors assigned from the cAMP reporter assay data; type: cell-based; conditions: assigned from the in vitro EC50 data of Tables 1-4
[3] = Food intake of mice after peptide injection; type: in vivo; conditions: for total food intake: versus vehicle control
[4] = Body weight of mice after peptide injection; conditions: for reduction of body weight: subcutaneous QW, 70 or 210 nmol/kg/week; for % change in body weight: Example 26, intraperitoneal, 3 or 10 nmol/kg/week, up to Day 7; for total change in body weight: subcutaneous, Day 7
[5] = Glucose tolerance test (1-hour and 24-hour GTT) in DIO mice; type: in vivo; conditions: Example 26; for potency in GTT compared with GLP-1 agonist control peptide: 1 or 3 nmol/kg/week versus control at 10 nmol/kg/week; for blood glucose levels in 1-hour and 24-hour GTT: DIO mice, intraperitoneal, 1, 3 or 10 nmol/kg/week, versus vehicle control
Method: A 1-hour glucose tolerance test (GTT) was performed on the mice by intraperitoneally injecting a 25% (w/v) glucose saline solution into the mice one hour after injection with one of the peptides or vehicle control. The glucose saline solution was administered to the mice at a dose of 1.5 g per kg of mouse body weight. Blood glucose levels were measured at the time of injection of peptide or vehicle control (−60 min), at the time of glucose saline solution injection (0 min), or at 15, 30, 60, or 120 min post injection with the glucose saline solution.
A 24-hour GTT also was performed on the mice in the same manner as the 1-hour GTT, except that the glucose saline solution was administered to the mice 24 hours after injection with the peptide or vehicle control. The results of the 24-hour GTT are showri in FIG. 8.

[6] = Example 20, DIO mice, subcutaneous QW, 70 or 210 nmol/kg/week
[7] = Example 28, DIO mice, subcutaneous, 10 nmol/kg, Day 0 versus Day 7
[8] = Example 34, DIO mice, 10 or 35 nmol/kg
[9] = Example 34, DIO mice, higher dose (35 nmol/kg), Day 0 versus Day 7

T1 sequence (P43220 24-463, species assumed): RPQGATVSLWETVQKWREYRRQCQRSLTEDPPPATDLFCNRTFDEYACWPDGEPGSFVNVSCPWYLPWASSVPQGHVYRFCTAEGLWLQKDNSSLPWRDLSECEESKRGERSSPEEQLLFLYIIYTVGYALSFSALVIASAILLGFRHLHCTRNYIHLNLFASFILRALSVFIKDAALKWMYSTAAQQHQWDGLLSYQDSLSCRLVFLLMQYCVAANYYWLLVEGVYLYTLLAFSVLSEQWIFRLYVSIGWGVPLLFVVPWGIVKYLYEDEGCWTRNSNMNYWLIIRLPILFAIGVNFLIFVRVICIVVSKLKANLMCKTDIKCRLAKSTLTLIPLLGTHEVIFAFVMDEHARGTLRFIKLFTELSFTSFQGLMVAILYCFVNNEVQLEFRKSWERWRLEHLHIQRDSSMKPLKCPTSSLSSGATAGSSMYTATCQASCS
T2 sequence (P47871 26-477): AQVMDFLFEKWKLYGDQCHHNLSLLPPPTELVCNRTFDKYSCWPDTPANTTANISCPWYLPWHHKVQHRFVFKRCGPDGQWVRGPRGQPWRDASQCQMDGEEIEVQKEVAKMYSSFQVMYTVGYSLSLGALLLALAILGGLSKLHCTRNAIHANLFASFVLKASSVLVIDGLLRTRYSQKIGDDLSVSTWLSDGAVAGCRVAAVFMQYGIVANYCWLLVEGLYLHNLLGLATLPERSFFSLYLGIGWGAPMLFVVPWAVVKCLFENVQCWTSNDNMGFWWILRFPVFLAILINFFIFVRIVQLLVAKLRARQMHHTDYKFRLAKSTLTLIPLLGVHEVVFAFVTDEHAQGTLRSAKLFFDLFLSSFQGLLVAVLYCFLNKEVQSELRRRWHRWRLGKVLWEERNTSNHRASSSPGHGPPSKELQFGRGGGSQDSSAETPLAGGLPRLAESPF

Molecule: CCCCCCCCCCCCCC(=O)NCCCC[C@H](NC(=O)[C@H](CO)NC(=O)[C@@H]1CCCN1C(=O)[C@@H]1CCCN1C(=O)[C@@H]1CCCN1C(=O)[C@H](C)NC(=O)CNC(=O)[C@H](CO)NC(=O)[C@H](CO)NC(=O)[C@@H]1CCCN1C(=O)CNC(=O)CNC(=O)[C@H](C)NC(=O)[C@H](CC(C)C)NC(=O)[C@H](CC(C)C)NC(=O)[C@H](Cc1c[nH]c2ccccc12)NC(=O)[C@H](CC(N)=O)NC(=O)[C@@H](NC(=O)[C@H](Cc1ccccc1)NC(=O)[C@H](CCC(=O)O)NC(=O)C(C)(C)NC(=O)[C@H](C)NC(=O)[C@H](C)NC(=O)[C@H](CCC(N)=O)NC(=O)[C@H](CCCCN)NC(=O)[C@H](CC(=O)O)NC(=O)[C@H](CC(C)C)NC(=O)[C@H](Cc1ccc(O)cc1)NC(=O)[C@@H](NC(=O)[C@H](CO)NC(=O)[C@H](Cc1ccc(O)cc1)NC(=O)[C@H](CC(=O)O)NC(=O)[C@H](CO)NC(=O)[C@@H](NC(=O)[C@H](Cc1ccccc1)NC(=O)[C@@H](NC(=O)CNC(=O)[C@H](CCC(=O)O)NC(=O)C(C)(C)NC(=O)[C@@H](N)Cc1ccc(O)cc1)[C@@H](C)O)[C@@H](C)O)[C@@H](C)CC)C(C)C)C(N)=O [mt-260]
- EC50 (GLP-1 receptor; GLP-1 Receptor EC50, cAMP luciferase reporter assay as in Example 16): 6.8 pM
- GLP-1 Receptor relative activity (GLP-1 receptor; relative to the standard (Std.) EC50 of the same run): 257.35%
- Glucagon Receptor relative activity (glucagon receptor): 6.64%
- GIP Receptor relative activity (GIP receptor): 583.33%
- decrease in blood glucose levels ([1]; Example 29, mice, QD for 7 days, 25 nmol/kg): ~50%
- receptor activity profile (glucagon / GLP-1 / GIP agonism) [2]: exhibited activity at the GIP, GLP-1, and glucagon receptors

Molecule: Pro3 C24 GIP NH2 (1-42) 40K PEG: amino acids 1-42 of GIP with Pro at position 3, Cys at position 24 attached to 40K PEG, C-terminal amide (YAPGTFISDYSIAMDKIHQQDFVC(PEG 40 kDa)WLLAQKGKKNDWKHNITQ-NH2) [reference compound]
- reduction of cumulative food intake [3, 6]: neither the GIP antagonist nor the GIP agonist peptide were effective
- reduction of blood glucose levels [1, 6]: neither the GIP antagonist nor the GIP agonist peptide were effective
- reduction of body weight ([4]; Example 20, DIO mice, compared with pegylated glucagon/GLP-1 co-agonist): neither the GIP antagonist nor the GIP agonist peptide were effective

Molecule: mt-178: pegylated, cyclic, lactam-containing GIP-active glucagon analog; GLP-1/GIP co-agonist peptide (Y[Aib]EGTFTSDYSIYLDEQAAKEFVNWLLAGGPSSGAPPPSC(PEG 40 kDa)-NH2; lactam 16-20)
- blood glucose levels [1, 7]: decreased
- receptor activity profile (glucagon / GLP-1 / GIP agonism) [2]: exemplary GLP-1/GIP co-agonist peptides
- potency in GTT compared with GLP-1 agonist control peptide [5]: greater than that of the GLP-1 agonist control peptide
- blood glucose levels in 1-hour and 24-hour GTT [5]: exhibited decreased levels of blood glucose
- reduction of body weight ([4]; Example 22, DIO mice): a little more effective at reducing body weight in the mice as Chimera 2 AIB2, but not as effective as Chimera 2 AIB2 lactam
- % change in body weight ([4]; DIO mice): lost weight to the same or greater extent of mice injected with the GLP-agonist control peptide
- total change in body weight ([4]; Example 28, DIO mice, 10 nmol/kg): greatest loss of body weight 7 days after injection

Molecule: mt-274: pegylated, linear peptide lacking a lactam, Glu at position 3, PEG on C-terminal Cys at position 40 (Y[Aib]EGTFTSDYSIYLDKQAA[Aib]EFVNWLLAGGPSSGAPPPSC(PEG 40 kDa)-NH2)
- total change in blood glucose ([1]; Example 27, mice, subcutaneous, 10 or 35 nmol/kg/week, Day 7): most dramatic changes in blood glucose
- blood glucose levels [1, 7]: decreased
- potency in GTT compared with GLP-1 agonist control peptide [5]: appeared to have the highest potency
- blood glucose levels in 1-hour and 24-hour GTT [5]: exhibited decreased levels of blood glucose
- % change in body weight ([4]; DIO mice): lost weight to the same or greater extent of mice injected with the GLP-agonist control peptide
- total change in body weight ([4]; Example 27, mice, 10 or 35 nmol/kg/week): most dramatic changes in body weight

Molecule: mt-309: acylated version of mt-274: C-terminal Lys with C14 fatty acyl group, 40 kDa PEG on Cys at position 24 (Y[Aib]EGTFTSDYSIYLDKQAA[Aib]EFVC(PEG 40 kDa)WLLAGGPSSGAPPPSK(C14 acyl)-NH2)
- decrease in blood glucose levels, effect of dosing frequency ([1]; Example 37, DIO mice, QD 5, every 2nd day 10 or QW 30 nmol/kg, Day 6): a QW injection of mt-309 achieved the same decrease in blood glucose levels as a QD injection
- total change in body weight (%), effect of dosing frequency ([4]; Example 37, DIO mice, subcutaneous QD 5 nmol/kg, every 2nd day 10 nmol/kg or QW 30 nmol/kg, Day 6): approximately the same as the total change in body weight for mice injected QD

Molecule: mt-311: non-acylated version of mt-298; PEG on Cys at position 24, C-terminal Lys (Y[Aib]EGTFTSDYSIYLDKQAA[Aib]EFVC(PEG 40 kDa)WLLAGGPSSGAPPPSK-NH2)
- total food intake [3, 8]: decreased, as compared to the mice injected with a vehicle control
- blood glucose levels [1, 7]: decreased
- blood glucose levels [1, 9]: decreased upon administration of the higher dose

Molecule: mt-331: same amino acid sequence as mt-311, differing in the pegylation linker; no acyl group on Lys at position 40 (Y[Aib]EGTFTSDYSIYLDKQAA[Aib]EFVC(PEG 40 kDa)WLLAGGPSSGAPPPSK-NH2; also: PEG linker structure not shown)
- total food intake [3, 8]: decreased, as compared to the mice injected with a vehicle control
- total food intake ([3]; Example 35, 3 or 10 nmol/kg): decreased in comparison to mice administered the vehicle control
- blood glucose levels [1, 9]: decreased upon administration of the higher dose

Molecule: mt-353: same sequence as mt-331 with a C14 fatty acyl group on the Lys at position 40 (Y[Aib]EGTFTSDYSIYLDKQAA[Aib]EFVC(PEG 40 kDa)WLLAGGPSSGAPPPSK(C14 acyl)-NH2)
- total food intake ([3]; Example 35, 3 or 10 nmol/kg): decreased in comparison to mice administered the vehicle control
- blood glucose levels ([1]; Example 35, C57Bl/6 mice on diabetogenic diet): additionally caused blood glucose levels to decrease
